Laboratory results published in PubChem BioAssay (NCI).
“And” between values parts separate entries of the source, which are not always exact repeats. Equal entries are not always repeated.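 Where inhibition never reached the appropriate level, the endpoint shown equals the highest concentration tested. Otherwise, values were interpolated linearly from a five-concentration, 48-hour dose response in 96-well plates. GI50: concentration for 50% inhibition of growth. Definition used: TGI = concentration required for complete inhibition of growth.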

What was measured:
Assay in all cases: inhibition of tumour cell growth, NCI panel, 48 h
786-0 renal = test system: 786-0 renal
HCT-15 colon = test system: HCT-15 colon
NCI-H522 lung = test system: NCI-H522 lung
OVCAR-5 ovarian = test system: OVCAR-5 ovarian
SF-268 CNS = test system: SF-268 CNS
SK-MEL-2 melanoma = test system: SK-MEL-2 melanoma
SK-MEL-28 melanoma = test system: SK-MEL-28 melanoma
SN12C renal = test system: SN12C renal
SW-620 colon = test system: SW-620 colon
T-47D breast = test system: T-47D breast
TK-10 renal = test system: TK-10 renal
UACC-62 melanoma = test system: UACC-62 melanoma
SNB-75 CNS = test system: SNB-75 CNS

SMILES	TGI (786-0 renal) [µM]	TGI (HCT-15 colon) [µM]	TGI (NCI-H522 lung)	TGI (OVCAR-5 ovarian)	TGI (SF-268 CNS)	TGI (SK-MEL-2 melanoma) [µM]	GI50 (SK-MEL-28 melanoma) [µM]	TGI (SK-MEL-28 melanoma) [µM]	TGI (SN12C renal)	TGI (SW-620 colon)	TGI (T-47D breast) [µM]	TGI (TK-10 renal)	TGI (UACC-62 melanoma)	TGI (SNB-75 CNS) [µM]
CN(Cc1cnc2nc(N)nc(N)c2n1)c1ccc(C(=O)N[C@@H](CCC(=O)O)C(=O)O)cc1	> 250	> 250	155 µM and > 250 µM	207 µM and > 250 µM	206 µM and > 250 µM	> 250	3.27	> 250	181 µM and > 250 µM	221 µM and > 250 µM	> 250	230 µM and > 250 µM	41.4 µM and > 250 µM	
Cc1nc(C)c(N2CCN(S(=O)(=O)N(Cc3ccccc3)Cc3ccccc3)CC2)c(=O)[nH]1	23.5	> 100	65.1 µM	> 100 µM	> 75 µM	> 100		> 100	> 100 µM	> 100 µM	> 85.7	> 72.9 µM	> 100 µM	32.9
CO/N=C(/C)c1cccc(Nc2nc3ccccc3c3[nH]c4ccccc4c23)c1	21.5	23.6	9.61 µM	22.3 µM	25.7 µM	23.5			25 µM	27.5 µM	6.9		19.3 µM	18.6
O=C(O)CCS/C(=C\C(SCCC(=O)O)c1ccc(Cl)cc1)c1ccc(Cl)cc1 (configuration not stated)	> 100	> 100	> 100 µM	> 100 µM	> 100 µM	74.4		> 100	> 100 µM	> 100 µM	> 100	> 100 µM	38.4 µM	> 100
CCN(CC)CCCNc1ccc2nc(C)n3c4ccc(O)cc4c(=O)c1c23	16.8	15.6	14.3 µM	20.2 µM	17.2 µM	21.3		26.6	18.7 µM	14.9 µM	31.4	16.4 µM	23.5 µM	7.69
CC(=N\N)/C(C)=N/N=C(C)/C(C)=N/N	> 100	> 100	> 100 µM	> 100 µM	> 100 µM	> 100		> 100	> 100 µM	> 100 µM	> 100	> 100 µM		> 100
Clc1ccc(C(c2ccccc2Cl)C(Cl)Cl)cc1 (configuration not stated)	36.7	36.5	34.3 µM	33.9 µM	37.6 µM	35.8		36.7	37 µM	39.2 µM	33.3	37.5 µM	34.4 µM	35.1
CN1C/C(=C\c2cccs2)C(O)/C(=C/c2cccs2)C1 (configuration not stated)	> 100	> 100	> 100 µM	> 100 µM	> 100 µM	> 100		> 100	> 100 µM	> 100 µM	74.2	> 100 µM	> 100 µM	
CCCCCCCCCCCCCCCCNC(=O)C(=O)/C=C(\O)c1ccc(C)cc1	> 10	> 10	> 10 µM	> 10 µM	> 10 µM	> 10		> 10	> 10 µM	> 10 µM	> 10	> 10 µM		> 10
